Laboratory results published in US20260287575A1, “LABEL-FREE METHODS FOR ASSESSING CELL STATE IN A BIOLOGICAL SAMPLE” (priority 2023, published 2026).

What was measured:
[1] = system: CT26 live tumor fragments; experiment: FLIM lifetime metabolic ratio (LMR) with ground truth dyes (PI, caspase 3/7) in CT26 live tumor fragments; type: cell-based, murine; conditions: for shift in the LMR relative to time zero healthy tissue: normalized LMR; for mode of cell death induced: confirmed with Caspase 3/7 and PI probes
Description: Live tumor fragments (LTFs) from flank expressed murine syngeneic CT26 tumors were used to assess cell state using a combination of OCM/dOCM and FLIM as described herein.
CT26 tumors were excised, bisected, and cut into 300×300×300 μm LTFs. These fragments were sorted into 18-well plates for analysis by microscopy. Fragments were incubated at 37° C. in 5% CO2 in non-phenol red containing RPMI for up to four hours before being placed in the microscope. During imaging the sample was maintained in a stage-top incubator at 37° C., 5% CO2, and 95% humidity. Images were taken using a custom four channel multi-photon microscope built on a modified Zeiss Axiovert platform using adapted Bruker components, the PrairieView software package, and electronic components to drive and control the scanning microscope. FLIM data was acquired using an 8 channel Swabian instruments time tagger.
FLIM images were acquired at 50 micron and 75 micron depths into the tissue. Live tumor fragment structure and metabolic status were assessed based on the intrinsically fluorescent metabolic co-factors […] (NAD(P)H), excited at 740 nm, and flavin adenine dinucleotide (FAD), excited at 880 nm. […] LMR histogram data from the fragments was normalized by taking the mode of the resultant histogram data at baseline from healthy tissue and setting this value to 0 across the time course. Data derived from the NAD(P)H, and FAD signals were used to segment the image into individual Voronoi cells seeded from nuclear segmentation. The normalized LMR value was determined for each Voronoi cell.
To qualify observed shifts in the LMR, the ground truth nuclear localizing dyes for cleaved caspase 3/7 activity (Invitrogen) or necrosis (propidium iodide) were added. Voronoi cells that stained positive for propidium iodide were marked as dead and those that were not stained with PI were marked as live.
Cell death via apoptosis was induced using staurosporine. […] (FIG. 8). […] Probe data from Caspase 3/7 and P1 confirmed the shift for LMR values indicating live tissue vs. dead tissue. Cell death via necroptosis was induced using Shikonin. […] PI confirmed the necroptosis signature.
To validate the imaging routine in a model with clinical relevancy, CT26 mLTFs were treated with a combination of […] (3MA) and doxorubicin over a duration of 48 hours (FIG. 10). For this, mLTFs were imaged every 24 hours following treatment for longitudinal assessment of chemotherapeutic efficacy. Linear metabolic shift values obtained in separate CT26 control experiments were applied to Voronoi segmented images to classify individual cells as alive or dead. Data were plotted in a time course indicating the activity of the drug combination.

mouse liver = experiment: Multimodal dOCM and FLIM imaging of tissue viability in mouse liver after shikonin injection; type: cell-based; conditions: 100 nL, 6 μM, injected into the center of the tissue; PI staining
Description: 100 nL shikonin (6 μM) was injected into the center of the tissue to create necroptosis indicted by the white arrow. Scale bar: 100 μm. […] LMR values are indicated by the color bar.

[2] = system: primary human lung cancer tissue; experiment: Combined dOCM and FLIM imaging of tissue viability in a primary human lung cancer tissue slice; type: cell-based; conditions: 10 μM
Description: (§1) FIG. 16 presents multimodal imaging of tissue viability with primary human lung cancer tissue using combined dOCM and FLIM. (a) dOCM and LMR images of a human lung cancer tissue slice. (b) dOCM and LMR images of another lung tissue slice from the same sample. The metabolic state of this sample is different from the tissue slice in (a). (c) The tissue slice in (a) was treated with 10 μM staurosporine. The slice was imaged 24 hours after treatment. […] Scale bar: 100 μm.
as §1, with “bar” for “bar:”

mouse liver slice = experiment: dOCM imaging of live and dead cells in a mouse liver slice after local staurosporine injection; type: cell-based; conditions: local injection of 200 nL, 2 μM in DMSO; 300 μm thick liver slice
Description: A 300 μm thick slice of liver is shown. […] Live cells in the live region (lower part in the xy plane) are highlighted in the dOCM image volume. The live cells show high contrast compared to dead regions in the three orthogonal views (xy, yz, and xz planes). The positions of the yz and xz slices are indicated by the yellow lines in the xy plane. Scale bar: 100 μm.
Live cells were visible in the dOCM image volume. […] Good correlation is observed between the dOCM signal and the expected LMR signatures in this monolithic tissue (FIG. 3). […] In those areas, the dOCM is used to establish a ground truth for living tissue that can in turn be used to qualify the LMR and set specific discreet baseline LMR values for living tissue in these regions. This is as opposed to using a generic, specific value determined with an assumption that the tissue is monolithic.

Row | Compound | shift in the LMR relative to time zero healthy tissue ([1]; CT26 LTFs) | Caspase 3/7 staining ([1]; CT26 LTFs, stressed tissue) | mode of cell death induced ([1]; CT26 LTFs) | mode of cell death created (mouse liver) | cell state indicated by NADH and FAD phasor plots ([2]; 24 hours after treatment) | metabolic state (LMR) compared to that prior to treatment ([2]; 24 hours after treatment) | viable cells revealed by dOCM ([2]; imaged 24 hours after treatment) | tissue viability by dOCM (mouse liver slice) | PI staining ([1]; CT26 live tumor fragment (FIG. 6)) | LMR values of PI-stained cells ([1]; CT26 live tumor fragment treated and stained with PI (FIG. 6))
1 | CC(C)=CC[C@@H](O)C1=CC(=O)c2c(O)ccc(O)c2C1=O [Shikonin] | large, reproducible shift to the left | little to no Caspase 3/7 staining | necroptosis | necroptosis |  |  |  |  |  | 
2 | CN[C@@H]1C[C@H]2O[C@@](C)([C@@H]1OC)n1c3ccccc3c3c4c(c5c6ccccc6n2c5c31)C(=O)NC4 [staurosporine] | large, reproducible shift to the right |  | apoptosis |  | undergoing apoptosis | shifted | Less viable cells | caused tissue death |  | 
3 | Cn1cnc(N)c2ncnc1-2 [3-MA] |  |  |  |  |  |  |  |  | dead cells | relatively uniform low LMR values
